Laboratory results: publication PMC10050199 (Sensors and Actuators. B, Chemical, 2023)

Legend:
SARS-CoV-2 SP [1] = molecular target: T1, SARS-CoV-2 SP (Severe acute respiratory syndrome coronavirus 2, UniProt P0DTC2)
SARS-CoV-2 SP [2] = molecular target: T1, SARS-CoV-2 SP; remark: listed apart in the source
SARS-CoV-2 S1 = format: binding

Sequence: WNLDLSQWLPPM [P1]
- frequency of peptide sequence among sequenced phage monoclonals (SARS-CoV-2 SP [1]): 16/30

Sequence: WNLDLSQWLPPM [P1-phage]
- binding to SARS-CoV-2 SP (absorbance) (SARS-CoV-2 SP [2]): higher absorbance value and was significantly higher than that of the control
- binding to SARS-CoV-2 S1 (SARS-CoV-2 S1): may also bind to SARS-CoV-2 S1 loosely
